The values below come from patent US11731986B2 (Sanford Burnham Prebys Medical Discovery Institute, priority 2017, dated 2023).

The assay deals with T1, human LMPTP-A (Homo sapiens, UniProt P24666).
T1 sequence (P24666 1-158): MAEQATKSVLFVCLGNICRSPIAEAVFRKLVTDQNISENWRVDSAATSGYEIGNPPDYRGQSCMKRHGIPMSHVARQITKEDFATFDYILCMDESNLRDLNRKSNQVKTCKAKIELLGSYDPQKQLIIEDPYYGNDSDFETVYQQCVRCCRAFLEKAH
Description: Enzyme Assay of Inhibition of LMPTP-A (phosphatase assay, OMFP or pNPP substrate). It counts as biochemical. The conditions noted are these: Bis-Tris pH 6.0, 37° C. In outline: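 Buffer 50 mM Bis-Tris pH 6.0, 1 mM DTT, 0.01% Triton X-100, 37 °C; OMFP read continuously (485/525 nm) or pNPP stopped with NaOH, 405 nm. IC50 from concentration vs % activity. Selectivity: 40 μM compound with 0.4 mM OMFP or 5 mM pNPP; reversibility: 50 nM enzyme, 10 μM compound, 5 min, 100× dilution.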
By IC50 is commonly meant the concentration needed to halve the response being measured. With `CN1CCC(N/C(=N\O)c2ccc(-c3cc(NCCCN4CCCCC4)c4cncc(Cl)c4n3)cc2)CC1` [(Z)-4-(8-chloro-4-((3-(piperidin-1-yl)propyl)amino)-1,6-naphthyridin-2-yl)-N′-hydroxy-N-(1-methylpiperidin-4-yl)benzimidamide], the IC50 is ≥ 20000 nM. To `CN1CCC(CCNC(=O)COCc2ccc(-c3cc(NCCCN4CCCCC4)c4cnccc4n3)cc2)CC1` [N-(2-(1-methylpiperidin-4-yl)ethyl)-2-(4-(4-(3-(piperidin-1-yl)propylamino)-1,6-naphthyridin-2-yl)benzyloxy)acetamide] belongs ≤ 1000 nM; to `CCOC(=O)c1cc2cc(-c3cc(NCCCN4CCCCC4)c4cnccc4n3)ccc2n1C` [ethyl 1-methyl-5-(4-((3-(piperidin-1-yl)propyl)amino)-1,6-naphthyridin-2-yl)-1H-indole-2-carboxylate], ≤ 1000 nM; to `O=C(COCc1ccc(-c2cc(NCCCN3CCCCC3)c3cnccc3n2)cc1)NCC1CCNCC1` [2-(4-(4-(3-(piperidin-1-yl)propylamino)-1,6-naphthyridin-2-yl)benzyloxy)-N-(piperidin-4-ylmethyl)acetamide], ≤ 1000 nM. Next, `CN1CCC(NC(=O)c2cc3ccc(-c4cc(NCCCN5CCCCC5)c5cnccc5n4)cc3[nH]2)CC1` [N-(1-Methylpiperidin-4-yl)-6-(4-(3-(piperidin-1-yl)propylamino)-1,6-naphthyridin-2-yl)-1H-indole-2-carboxamide]: 1000 to 20000 nM. `CN1CCC(NC(=O)c2ccc(-c3cc(NCCCN4CCCCC4)c4cnccc4n3)cn2)CC1` [N-(1-methylpiperidin-4-yl)-5-(4-((3-(piperidin-1-yl)propyl)amino)-1,6-naphthyridin-2-yl)picolinamide] gave an IC50 of 1000 to 20000 nM. The compound `CN1CCC(NC(=O)c2cc3cc(-c4cc(OCCCN5CCCCC5)c5cnccc5n4)ccc3n2C)CC1` [1-methyl-N-(1-methylpiperidin-4-yl)-5-(4-(3-(piperidin-1-yl)propoxy)-1,6-naphthyridin-2-yl)-1H-indole-2-carboxamide] displayed an IC50 of 1000 to 20000 nM. `CCN(CC)C(=O)c1ccc(-c2cc(NCCN3CCS(=O)(=O)CC3)c3cnccc3n2)cc1` [4-(4-((2-(1,1-Dioxidothiomorpholino)ethyl)amino)-1,6-naphthyridin-2-yl)-N,N-diethylbenzamide] yielded an IC50 of 1000 to 20000 nM. On to `Cn1c(C(=O)NC2CCNCC2)cc2cc(-c3cc(NCc4ccc(CN5CCCCC5)cc4)c4cnccc4n3)ccc21` [1-methyl-5-(4-(4-(piperidin-1-ylmethyl)benzylamino)-1,6-naphthyridin-2-yl)-N-(piperidin-4-yl)-1H-indole-2-carboxamide], for which the IC50 is ≤ 1000 nM. To `CCN1CCC(CNC(=O)/C=C/c2ccc(-c3cc(NCCCN4CCCCC4)c4cnccc4n3)cc2)CC1` [(E)-N-((1-Ethylpiperidin-4-yl)methyl)-3-(4-(4-(3-(piperidin-1-yl)propylamino)-1,6-naphthyridin-2-yl)phenyl)acrylamide] belongs 1000 to 20000 nM; to `CCN(CC)C(=O)c1ccc(-c2cc(NCCCN3CCN(C)CC3)c3cnccc3n2)cc1` [N,N-diethyl-4-(4-(3-(4-methylpiperazin-1-yl)propylamino)-1,6-naphthyridin-2-yl)benzamide], 1000 to 20000 nM. For the compound `CCN(CC)C(=O)/C=C/c1ccc(-c2cc(Nc3ccc(CN4CCCC4)cc3)c3cnccc3n2)cc1` [(E)-N,N-Diethyl-3-(4-(4-((4-(pyrrolidin-1-ylmethyl)phenyl)amino)-1,6-naphthyridin-2-yl)phenyl)acrylamide], the IC50 fell in the range of 1000 to 20000 nM. To `CN1CCC(NC(=O)CCc2ccc(-c3cc(NC4CCN(C)CC4)c4cnccc4n3)cc2)CC1` [N-(1-Methylpiperidin-4-yl)-3-(4-(4-(1-methylpiperidin-4-ylamino)-1,6-naphthyridin-2-yl)phenyl)propanamide] belongs ≤ 1000 nM.

On to `O=C(NCCCN1CCCCC1)c1nc2cc(-c3cc(NCCCN4CCCCC4)c4cnccc4n3)ccc2[nH]1` [N-(3-(piperidin-1-yl)propyl)-5-(4-((3-(piperidin-1-yl)propyl)amino)-1,6-naphthyridin-2-yl)-1H-benzo[d]imidazole-2-carboxamide], for which the IC50 is ≤ 1000 nM.

For the compound `CCN(CC)C(=O)c1ccc(-c2cc(NCCCN3CCCCC3)c3cnccc3n2)c(C(F)(F)F)c1` [N,N-diethyl-4-(4-((3-(piperidin-1-yl)propyl)amino)-1,6-naphthyridin-2-yl)-3-(trifluoromethyl)benzamide], the IC50 is ≤ 1000 nM. Take `O=C(NCCCN1CCCCC1)c1ccc(-c2cc(NC3CCNC3)c3cnccc3n2)cc1` (centres unmarked) [N-(3-(Piperidin-1-yl)propyl)-4-(4-(pyrrolidin-3-ylamino)-1,6-naphthyridin-2-yl)benzamide]: the IC50 was in the range of 1000 to 20000 nM.

Turning to `CCN(CC)C(=O)c1ccc(-c2cc(NCCN3CCCCC3)c3cnccc3n2)cc1` [N,N-Diethyl-4-(4-((2-(piperidin-1-yl)ethyl)amino)-1,6-naphthyridin-2-yl)benzamide], the IC50 lay within 1000 to 20000 nM.

`O=C(NCCCN1CCCCC1)c1nc2cc(-c3cc(Nc4ccc(CN5CCCC5)cc4)c4cnccc4n3)ccc2[nH]1` [N-(3-(piperidin-1-yl)propyl)-5-(4-((4-(pyrrolidin-1-ylmethyl)phenyl)amino)-1,6-naphthyridin-2-yl)-1H-benzo[d]imidazole-2-carboxamide]: the concentration for half-maximal inhibition (IC50) is ≤ 1000 nM. In the case of `CN(C)CCNC(=O)c1nc2cc(-c3cc(Nc4ccc(CN5CCCC5)cc4)c4cnccc4n3)ccc2[nH]1` [N-(2-(dimethylamino)ethyl)-5-(4-((4-(pyrrolidin-1-ylmethyl)phenyl)amino)-1,6-naphthyridin-2-yl)-1H-benzo[d]imidazole-2-carboxamide], the concentration for half-maximal inhibition (IC50) was ≤ 1000 nM.

`CCN(CC)C(=O)c1ccc(-c2cc(NC3CCN(C)CC3)c3cnccc3n2)cc1` [N,N-Diethyl-4-(4-((1-methylpiperidin-4-yl)amino)-1,6-naphthyridin-2-yl)benzamide] yielded an IC50 of 1000 to 20000 nM. Next, `CN1CCC(NC(=O)/C=C/c2ccc(-c3cc(NCCCN4CCCCC4)c4cnccc4n3)s2)CC1` [(E)-N-(1-Methylpiperidin-4-yl)-3-(5-(4-(3-(piperidin-1-yl)propylamino)-1,6-naphthyridin-2-yl)thiophen-2-yl)acrylamide]: 1000 to 20000 nM; `CCN(CC)C(=O)c1ccc(-c2cc(NCCCN3CCCCC3)c3cnccc3n2)cc1` [N,N-diethyl-4-(4-(3-(piperidin-1-yl)propylamino)-1,6-naphthyridin-2-yl)benzamide]: ≤ 1000 nM. The compound `CCN(CC)C(=O)c1ccc(-c2cc(Nc3ccc(CN(C)C)cc3)c3cnccc3n2)cc1` [4-(4-(4-((Dimethylamino)methyl)phenylamino)-1,6-naphthyridin-2-yl)-N,N-diethylbenzamide] registered a concentration for half-maximal inhibition (IC50) of 1000 to 20000 nM. `CCN(CC)C(=O)c1ccc(-c2cc(Nc3ccc(OC)cc3)c3cnccc3n2)cc1` [N,N-Diethyl-4-(4-(4-methoxyphenylamino)-1,6-naphthyridin-2-yl)benzamide] yielded a half-inhibitory concentration (IC50) of 1000 to 20000 nM. To `CN(C)CCNC(=O)c1ccc(-c2cc(NCCCN3CCCCC3)c3cnccc3n2)cc1` [N-(2-(dimethylamino)ethyl)-4-(4-((3-(piperidin-1-yl)propyl)amino)-1,6-naphthyridin-2-yl)benzamide] belongs ≤ 1000 nM; to `CCN(CC)C(=O)c1ccc(-c2cc(NCCCN3CCCCC3)c3cnccc3n2)c(C(N)=O)c1` [N1,N1-diethyl-4-(4-((3-(piperidin-1-yl)propyl)amino)-1,6-naphthyridin-2-yl)isophthalamide], 1000 to 20000 nM; to `O=C(NCCCN1CCCCC1)c1cc2ccc(-c3cc(NCCCN4CCCCC4)c4cnccc4n3)cc2s1` [N-(3-(piperidin-1-yl)propyl)-6-(4-(3-(piperidin-1-yl)propylamino)-1,6-naphthyridin-2-yl)benzo[b]thiophene-2-carboxamide], ≤ 1000 nM. Turning to `CN1CCC(CNC(=O)CCc2ccc(-c3cc(NCCCN4CCCCC4)c4cnccc4n3)cc2)CC1` [N-((1-Methylpiperidin-4-yl)methyl)-3-(4-(4-(3-(piperidin-1-yl)propylamino)-1,6-naphthyridin-2-yl)phenyl)propanamide], the IC50 is ≤ 1000 nM.

`Cn1c(C(N)=O)cc2nc(-c3cc(NCCCN4CCCCC4)c4cnccc4n3)ccc21` [1-methyl-5-(4-((3-(piperidin-1-yl)propyl)amino)-1,6-naphthyridin-2-yl)-1H-pyrrolo[3,2-b]pyridine-2-carboxamide] had an IC50 of 1000 to 20000 nM.

For `CN1CCC(NC(=O)c2ccc(-c3cc(NCCCN4CCCCC4)c4cnccc4n3)c(C#N)c2)CC1` [3-cyano-N-(1-methylpiperidin-4-yl)-4-(4-((3-(piperidin-1-yl)propyl)amino)-1,6-naphthyridin-2-yl)benzamide], the 50% inhibitory concentration (IC50) was 1000 to 20000 nM.

As for `CCN(CC)C(=O)COCc1ccc(-c2cc(NCCCN3CCCCC3)c3cnccc3n2)cc1` [N,N-diethyl-2-((4-(4-((3-(piperidin-1-yl)propyl)amino)-1,6-naphthyridin-2-yl)benzyl)oxy)acetamide], the IC50 fell in the range of 1000 to 20000 nM.

For the compound `CCNC1CCN(C(=O)CCc2ccc(-c3cc(NCCCN4CCCCC4)c4cnccc4n3)cc2)CC1`, the half-inhibitory concentration (IC50) is ≤ 1000 nM. The compound `CCN(CC)C(=O)c1ccc(-c2cc(NC3CCN(C)C3)c3cnccc3n2)cc1` (centres unmarked) [N,N-Diethyl-4-(4-(1-methylpyrrolidin-3-ylamino)-1,6-naphthyridin-2-yl)benzamide] came in with an IC50 of 1000 to 20000 nM.

On to `Cn1c(C(=O)NC2CCSCC2)cc2cc(-c3cc(NCCCN4CCCCC4)c4cnccc4n3)ccc21` [1-methyl-5-(4-(3-(piperidin-1-yl)propylamino)-1,6-naphthyridin-2-yl)-N-(tetrahydro-2H-thiopyran-4-yl)-1H-indole-2-carboxamide], for which the concentration for half-maximal inhibition (IC50) was ≤ 1000 nM. To `NC1CCN(C(=O)CCc2ccc(-c3cc(NCCCN4CCCCC4)c4cnccc4n3)cc2)CC1` belongs ≤ 1000 nM.
